In general, IC50 refers to the concentration needed to halve the response being measured.

Where a name gives a salt, the structure may show the parent alone.

The text below walks through data of patent US9586931B2 (Merck Sharp & Dohme Corp., priority 2012, dated 2017).

This test concerns the target T1, recombinant human GST-Syk (Homo sapiens, UniProt P43405).
T1 construct: purchased Carna Biosciences 08-176
Briefly: Homogeneous Time-Resolved Fluorescence (HTRF) assay for the recombinant human Syk enzyme. The format is biochemical. The note with it: recombinant human GST-Syk 5 pM, ATP 25 μM, 10-dose titration 10 μM to 0.508 nM; read-out: rhSYK Activity IC50. The method, boiled down:
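GST-hSyk fusion protein phosphorylated a peptide for 45 min at room temperature. The reaction was quenched with 2 nM Eu-anti-phosphotyrosine antibody and 70 nM SA-APC in 15 mM Tris pH 7.5, 40 mM EDTA, 0.01% Tween 20. The HTRF signal was read after 30 min.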
On the technique in general: TR-FRET usually uses a lanthanide donor and a delayed reading to cut background.
`Cc1cc(Nc2nccc(C(F)(F)F)n2)cc(-c2cn(CCOCCO)nn2)c1` [Example 5.49, 2-{2-[4-(3-methyl-5-{[4-(trifluoromethyl)pyrimidin-2-yl]amino}phenyl)-1H-1,2,3-triazol-1-yl]ethoxy}ethanol]: the IC50 is 78.8 nM. In the case of `Cc1cc(Nc2cc(C(F)F)ccn2)nc(-c2cn(C(C)C(C)(O)CO)nn2)c1` (single isomer, unassigned) [Example 30.8, 3-[4-(6-{[4-(difluoromethyl)pyridin-2-yl]amino}-4-methylpyridin-2-yl)-1H-1,2,3-triazol-1-yl]-2-methylbutane-1,2-diol], the IC50 was found to be 1.2 nM. As for `Cc1cc(Nc2cc(C(F)(F)F)ccn2)nc(-c2cn(C3CCC(C(N)=O)C(C)(C)C3)nn2)c1` (single isomer, unassigned) [Example 1.4, 2,2-dimethyl-4-[4-(4-methyl-6-{[4-(trifluoromethyl)pyridin-2-yl]amino}pyridin-2-yl)-1H-1,2,3-triazol-1-yl]cyclohexanecarboxamide], the figure is 3.8 nM. As for `COC(=O)[C@@H]1CCCN1C(=O)[C@H](C)n1cc(-c2cc(C)cc(Nc3cc(C(F)(F)F)ccn3)n2)nn1` [Example 1.56, methyl 1-{(2S)-2-[4-(4-methyl-6-{[4-(trifluoromethyl)pyridin-2-yl]amino}pyridin-2-yl)-1H-1,2,3-triazol-1-yl]propanoyl}prolinate], the IC50 amounted to 423 nM. As to `Cc1cc(Nc2nccc(C(F)(F)F)n2)cc(-c2cn(CC(O)CF)nn2)c1` (racemic) [Example 5.52, 1-fluoro-3-[4-(3-methyl-5-{[4-(trifluoromethyl)pyrimidin-2-yl]amino}phenyl)-1H-1,2,3-triazol-1-yl]propan-2-ol], the IC50 was 16.4 nM. As for `Cc1cc(Nc2ncc(F)c(C(F)F)n2)cc(-c2cn(CC3OC(=O)NC34CC4)nn2)c1` (single isomer, unassigned) [Example 7.34, 7-{[4-(3-{[4-(difluoromethyl)-5-fluoropyrimidin-2-yl]amino}-5-methylphenyl)-1H-1,2,3-triazol-1-yl]methyl}-6-oxa-4-azaspiro[2.4]heptan-5-one], the figure is 9.9 nM; as for `Cc1cc(Nc2cc(C(F)F)ccn2)nc(-c2cn(CC3OC(=O)NC3C)nn2)c1` (single isomer, unassigned) [Example 7.43, 5-{[4-(6-{[4-(difluoromethyl)pyridin-2-yl]amino}-4-methylpyridin-2-yl)-1H-1,2,3-triazol-1-yl]methyl}-4-methyl-1,3-oxazolidin-2-one], 3.8 nM. As for `Cc1cc(Nc2nccc(C(F)F)n2)cc(-c2cn(CC3CNC(=O)C3)nn2)c1` (single isomer, unassigned) [Example 28.1, 4-((4-(3-((4-(difluoromethyl)pyrimidin-2-yl)amino)-5-methylphenyl)-1H-1,2,3-triazol-1-yl)methyl)pyrrolidin-2-one], the figure is 8.4 nM; as for `Cc1cc(Nc2nccc(C(F)F)n2)cc(-c2cn(CC3CNCCO3)nn2)c1` (single isomer, unassigned) [Example 22.1, 4-(Difluoromethyl)-N-(3-methyl-5-(1-(morpholin-2-ylmethyl)-1H-1,2,3-triazol-4-yl)phenyl) pyrimidin-2-amine], 14.3 nM.

With `CCOC(=O)C(O)C(O)Cn1cc(-c2cc(C)cc(Nc3cc(C(F)(F)F)ccn3)n2)nn1` (stereo not shown) [Example 10.9, ethyl 2,3-dihydroxy-4-[4-(4-methyl-6-{[4-(trifluoromethyl)pyridin-2-yl]amino}pyridin-2-yl)-1H-1,2,3-triazol-1-yl]butanoate], the IC50 came to 33.1 nM. Turning to `Cc1cc(Nc2cc(C(F)(F)F)ccn2)nc(-c2cn(C(C)C(=O)N[C@H]3C[C@@H]3c3ccccc3)nn2)c1` (stereo partly drawn) [Example 1.40, 2-[4-(4-methyl-6-{[4-(trifluoromethyl)pyridin-2-yl]amino}pyridin-2-yl)-1H-1,2,3-triazol-1-yl]-N-[(1S,2R)-2-phenylcyclopropyl]propanamide], the IC50 was determined as 118 nM. Turning to `Cc1cc(Nc2cc(C(F)(F)F)ccn2)nc(-c2cn([C@H](C)C(N)=O)nn2)c1` [Example 1.23, (2R)-2-[4-(4-methyl-6-{[4-(trifluoromethyl)pyridin-2-yl]amino}pyridin-2-yl)-1H-1,2,3-triazol-1-yl]propanamide], the IC50 is 6.8 nM. On to `Cc1cc(Nc2cc(C(F)(F)F)ccn2)nc(-c2cn([C@H](C)C(=O)N3CCC[C@H]3C(N)=O)nn2)c1` [Example 1.19, 1-{(2R)-2-[4-(4-methyl-6-{[4-(trifluoromethyl)pyridin-2-yl]amino}pyridin-2-yl)-1H-1,2,3-triazol-1-yl]propanoyl}prolinamide], for which the IC50 amounted to 123 nM. As for “4-{1-[4-(6-{[4-(cyclohexyloxy)pyridin-2-yl]amino}-4-methylpyridin-2-yl)-1H-1,2,3-triazol-1-yl]ethyl}benzoic acid [Example 2.7]”, the figure is 16.7 nM. As for `Cc1cc(Nc2cc(C(F)(F)F)ccn2)nc(-c2cn(CC#N)nn2)c1` [Example 5.92, [4-(4-methyl-6-{[4-(trifluoromethyl)pyridin-2-yl]amino}pyridin-2-yl)-1H-1,2,3-triazol-1-yl]acetonitrile], the figure is 22 nM.

Take `Cc1cc(Nc2cc(C(F)(F)F)ccn2)nc(-c2cn(CC(O)C(=O)O)nn2)c1` (racemic) [Example 5.39, 2-hydroxy-3-[4-(4-methyl-6-{[4-(trifluoromethyl)pyridin-2-yl]amino}pyridin-2-yl)-1H-1,2,3-triazol-1-yl]propanoic acid]: the IC50 worked out at 44.9 nM. For `Cc1cc(Nc2nccc(C(F)(F)F)n2)cc(-c2nnc(CCC(=O)O)[nH]2)c1` [Example 20.1, 3-(5-(3-Methyl-5-((4-(trifluoromethyl)pyrimidin-2-yl)amino)phenyl)-4H-1,2,4-triazol-3-yl)propanoic acid], the half-inhibitory concentration (IC50) amounted to 7.7 nM. The same measure for `Cc1cc(Nc2nccc(C(F)(F)F)n2)cc(-c2cn(C(C)C(O)CC#N)nn2)c1` (single isomer, unassigned) [Example 4.7, 3-hydroxy-4-[4-(3-methyl-5-{[4-(trifluoromethyl)pyrimidin-2-yl]amino}phenyl)-1H-1,2,3-triazol-1-yl]pentanenitrile]: 15.8 nM; for `Cc1cc(Nc2nccc(C(F)F)n2)cc(-c2cn(C3CCCC(C)(O)C3O)nn2)c1` (single isomer, unassigned) [Example 29.1, 3-(4-(3-((4-(Difluoromethyl)pyrimidin-2-yl)amino)-5-methylphenyl)-1H-1,2,3-triazol-1-yl)-1-methylcyclohexane-1,2-diol]: 19.7 nM; for `Cc1cc(Nc2cc(C(F)F)ccn2)nc(-c2cn(CC3CNCCO3)nn2)c1` (single isomer, unassigned) [Example 26.2, N-(4-(difluoromethyl)pyridin-2-yl)-4-methyl-6-(1-(morpholin-2-ylmethyl)-1H-1,2,3-triazol-4-yl)pyridin-2-amine]: 3.3 nM. As for `Cc1cc(Nc2nccc(C(F)F)n2)cc(-c2cn(C(C)C3CNC(=O)O3)nn2)c1` (single isomer, unassigned) [Example 7.2, 5-(1-(4-(3-((4-(Difluoromethyl)pyrimidin-2-yl)amino)-5-methylphenyl)-1H-1,2,3-triazol-1-yl)ethyl)oxazolidin-2-one], the figure is 3.3 nM; as for `Cc1cc(Nc2cc(C(F)(F)F)ccn2)nc(-c2cn([C@H](C)C(=O)NCC(=O)O)nn2)c1` [Example 3.14, N-{(2R)-2-[4-(4-methyl-6-{[4-(trifluoromethyl)pyridin-2-yl]amino}pyridin-2-yl)-1H-1,2,3-triazol-1-yl]propanoyl}glycine], 9.6 nM; as for `Cc1cc(Nc2cc(C(F)(F)F)ccn2)nc(-c2cn(C3CNCC3O)nn2)c1` (stereo not shown) [Example 4.15, 4-[4-(4-methyl-6-{[4-(trifluoromethyl)pyridin-2-yl]amino}pyridin-2-yl)-1H-1,2,3-triazol-1-yl]pyrrolidin-3-ol], 32.9 nM.

In the case of `Cc1cc(Nc2nccc(C(F)(F)F)n2)cc(-c2cn(CC3(O)CCC(C(=O)O)C(C)(C)C3)nn2)c1` (single isomer, unassigned) [Example 3.3, (R or S) 4-hydroxy-2,2-dimethyl-4-{[4-(3-methyl-5-{4-(trifluoromethyl)pyrimidin-2-yl]amino}phenyl)-1H-1,2,3-triazol-1-yl]methyl}cyclohexanecarboxylic acid], the IC50 turned out to be 54.3 nM. Regarding `Cc1cc(Nc2cc(C3CCC3)ccn2)nc(-c2cn(C(C)c3ccc(C(=O)O)cc3)nn2)c1` (stereo not shown) [Example 2.10, 4-[1-(4-{6-[(4-cyclobutylpyridin-2-yl)amino]-4-methylpyridin-2-yl}-1H-1,2,3-triazol-1-yl)ethyl]benzoic acid], the IC50 amounted to 3.7 nM. `COC(=O)CNC(=O)[C@H](C)n1cc(-c2cc(C)cc(Nc3cc(C(F)(F)F)ccn3)n2)nn1` [Example 1.1, Methyl N-{(2S)-2-[4-(4-methyl-6-{[4-(trifluoromethyl)pyridin-2-yl]amino}pyridin-2-yl)-1H-1,2,3-triazol-1-yl]propanoyl}glycinate trifluoroacetate]: the IC50 was 76.3 nM. Turning to `Cc1cc(Nc2cc(C(F)(F)F)ccn2)nc(-c2cn(C(C)C(=O)N3CCc4onc(-c5ccc(F)cc5)c4C3)nn2)c1` (stereo not shown) [Example 1.39, 6-(1-{2-[3-(4-fluorophenyl)-6,7-dihydroisoxazolo[4,5-c]pyridin-5(4H)-yl]-1-methyl-2-oxoethyl}-1H-1,2,3-triazol-4-yl)-4-methyl-N-[4-(trifluoromethyl)pyridin-2-yl]pyridin-2-amine], the concentration for half-maximal inhibition (IC50) amounted to 367 nM.

As to `Cc1cc(Nc2nccc(C(F)(F)F)n2)cc(-c2cn(CC(O)C(F)(F)F)nn2)c1` (racemic) [Example 5.54, 1,1,1-trifluoro-3-[4-(3-methyl-5-{[4-(trifluoromethyl)pyrimidin-2-yl]amino}phenyl)-1H-1,2,3-triazol-1-yl]propan-2-ol], the IC50 worked out at 29.4 nM.
